What was measured:
[1] = Stability of vitamin C dissolved in water; type: physicochemical; conditions: eight hours after it is dissolved in water
[2] = cited from earlier work

Molecule | portion oxidized into dehydroascorbic acid and deactivated by hydrolysis [1] | volume of an absolute alcohol in which 1 g dissolves ([2]; absolute alcohol) [mL] | volume of an alcohol in which 1 g dissolves ([2]; alcohol) [mL] | volume of glycerol in which 1 g dissolves ([2]; glycerol) [mL] | volume of propylene glycol in which 1 g dissolves ([2]; propylene glycol) [mL] | volume of water in which 1 g dissolves ([2]; water) [mL] | solubility in an alcohol ([2]; alcohol (95% in ethanol)) | solubility in water ([2]; water)
O=C1O[C@H]([C@@H](O)CO)C(O)=C1O [Vitamin C, L-ascorbic acid] | at least 10% | 50 | 30 | 100 | 20 | 3 | – | –
tocopherol [vitamin E] | – | – | – | – | – | – | readily soluble | almost insoluble
